The values below come from PMC10743653, “Combined In Silico and In Vitro Analyses to Assess the Anticancer Potential of Thiazolidinedione–Thiosemicarbazone Hybrid Molecules” (International Journal of Molecular Sciences, 2023).

Assay [1] in a line: DPPH free radical scavenging test. From the text:
Antioxidant activity is a complex procedure, usually happening through several multiple or predominant chemical mechanisms (i.e., hydrogen atom transfer (HAT), single electron transfer (SET), and the ability to chelate transition metals), and it is influenced by many factors, which cannot be fully described with one single method. Therefore, it is important to perform more than one type of measurement to take into account the various mechanisms of antioxidant action. In this study, to assess the antioxidant activity of TZD–TSCs 2–5, two complementary tests were used: a DPPH (2,2-diphenyl-1-picrylhydrazyl) free radical-scavenging ability assay, that detects the HAT and SET mechanisms, and a FRAP (ferric reducing antioxidant power) assay, that prefers the […] mechanism. The antioxidant powers of 2–5 were compared to standard antioxidants, such as the water-soluble synthetic analogue of vitamin E (Trolox) and ascorbic acid (vitamin C).
The free radical scavenging activity of […] was measured by the DPPH assay. Briefly, 100 μl of DPPH solution (0.2 mg/mL in ethanol) was added to 100 μL of the tested compound concentrations (25, 75, 150, and 200 μg/mL, respectively). Trolox, at increasing concentrations (1–50 μg/mL), was used as a standard. After 20 min of incubation at room temperature, the absorbances of the solutions were measured at 515 nm. The lower the absorbance, the higher the free radical scavenging activity of the compound. The activity of each compound was determined by comparing its absorbance with that of the standard.
The ability of the compounds to scavenge the DPPH radical was calculated by the following formula:DPPH scavenging effect (%) = [(Xcontrol − Xcompound/Xcontrol) × 100], where Xcontrol is the absorbance of the control and Xcompound is the absorbance in the presence of TZD-TSCs preparations.

The next assay deals with CCD 841 CoTr cells. The experiment in a line: Nitric oxide measurement (Griess), CCD 841 CoTr. Format: cell-based, human. The note with it: 200 μg/mL. As for the experimental part:
Nitrate, i.e., a stable end product of NO, was measured in culture supernatants with a spectrophotometric method based on the Griess reaction. Culture supernatants were collected from the cell cultures treated with specific concentrations of the tested compounds (25, 75, 150, and 200 μg/mL, respectively). Briefly, 100 μL of the culture supernatant was placed in 96-well flat-bottomed plates in triplicate and incubated with 100 μL of Griess reagent (1% sulfanilamide/0.1% N-(1-naphthyl)ethylenediamine dihydrochloride) in 3% H3PO4 at room temperature for 10 min. The optical density was measured at 550 nm using a microplate reader. A standard curve was prepared using 0.5–25 μM sodium nitrite (NaNO2) for calibration.
(In general: Griess reagent forms a coloured azo dye with nitrite.)

For the next assay, the system named is T98G cells. Nature of the assay: Cell migration (wound healing) assay, T98G. It counts as cell-based, human. Conditions: 24 h; for Migration of cancer cells (wound healing): IC50 doses (2: 26.82 μM; 3: 28.34 μM); for Reduction in the migratory potential: ½ IC50 concentrations (2: 13.41 μM; 3: 14.17 μM). As for the experimental part: The possible anti-migratory effect of 2 and 3 was examined against HepG2 and T98G cells, which most effectively responded to TZD–TSC treatment. The ability of cells to cover the scratched area was monitored after 24 h of incubation with compounds 2 and 3. […] Thus, we can conclude that the anticancer potential of the investigated compounds is enriched by their anti-metastatic effect.
Cell migration ability was evaluated according to a wound healing assay. On the day of the experiment, HepG2 and T98G cells were collected from monolayers using trypsin/EDTA and seeded on 6-well plates at a density of 1 × 10^5 cells mL^−1. After 24 h, when the confluence of cells reached about 80%, a vertical linear scratch was created in the monolayer with a sterile pipette tip. The cells were washed three times with a phosphate-buffered saline (PBS) to remove all cellular debris. Subsequently, the cells were cultured in a serum-free medium, containing compounds 2 or 3 in the concentrations equal to their IC50 or ½ IC50 values, as examined for HepG2 and T98G cancer cell lines (data provided in Table 2).Images of the scratch were taken after 0 h and 24 h using an Olympus CKX53 microscope coupled with a XM10 digital camera (Olympus). The experiments were performed at least in duplicate. The scratch area at the beginning of the experiment (0 h) was considered to be 100%. The open wound area was measured with the NIH ImageJ software version 1.53t (Bethesda, Rockville, MD, USA). The percentage of wound closure was calculated using the following formula [81]: Wound closure (%)=open wound area at 0 h −open wound area at 24 h or 48 h/open wound area at 0 h×100%

As to `O=C(C=C1SC(=O)NC1=O)Oc1ccccc1C=NNC(=S)Nc1ccccc1Cl` [TZD–TSC 2], the “DPPH reduction value corresponding to concentration of Trolox” value was determined as 2.942 µg/mL in assay [1] (compound at 25 μg/mL), 6.670 µg/mL in assay [1] (compound at 75 μg/mL), 11.412 µg/mL in assay [1] (compound at 150 μg/mL) and 15.068 µg/mL in assay [1] (compound at 200 μg/mL). For the same molecule, the “NO production, [NO2^−]” value in the assay with CCD 841 CoTr cells is 0.566 µM. Moreover, the “Migration of cancer cells (wound healing)” value in the assay with T98G cells is given as “almost completely suppressed”. For the same molecule, the “Reduction in the migratory potential” value with T98G cells is on record as more than 90%.
Turning to `O=C(C=C1SC(=O)NC1=O)Oc1ccccc1C=NNC(=S)Nc1cccc(Cl)c1` [TZD–TSC 3], the “DPPH reduction value corresponding to concentration of Trolox” value in assay [1] (compound at 25 μg/mL) came out at 2.616 µg/mL; in assay [1] (compound at 75 μg/mL), 9.168 µg/mL; in assay [1] (compound at 150 μg/mL), 17.167 µg/mL; in assay [1] (compound at 200 μg/mL), 21.439 µg/mL. For the same molecule, the “NO production, [NO2^−]” value in the assay with CCD 841 CoTr cells was 0.492 µM. Also, in the assay with T98G cells, the “Migration of cancer cells (wound healing)” value is “almost completely suppressed”. Also, in the assay on T98G cells, the “Reduction in the migratory potential” value is more than 90%.
